The record followed here is ChEMBL document CHEMBL3797191, “Isocoumarins, miraculous natural products blessed with diverse pharmacological activities” (Eur J Med Chem, 2016).

Values after ≈ are worked out from the molar mass of the structure shown.

One data set addresses T1, Kallikrein-5 (Homo sapiens, UniProt Q9Y337).
T1 sequence (Q9Y337 whole entry): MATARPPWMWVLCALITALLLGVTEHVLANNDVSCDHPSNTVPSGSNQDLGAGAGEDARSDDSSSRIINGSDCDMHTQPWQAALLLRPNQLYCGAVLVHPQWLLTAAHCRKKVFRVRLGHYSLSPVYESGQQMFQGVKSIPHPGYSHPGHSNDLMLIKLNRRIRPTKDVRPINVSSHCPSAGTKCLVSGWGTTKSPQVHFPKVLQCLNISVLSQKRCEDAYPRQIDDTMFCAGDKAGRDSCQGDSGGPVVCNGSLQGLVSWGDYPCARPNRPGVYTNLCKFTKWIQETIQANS
The data set is described as follows: Competitive inhibition of human kallikrein-5.

A further data set deals with Rattus norvegicus. The data set is described as follows: Anti-ulcer activity in Sprague-Dawley rat stomach assessed as protection against stress-induced gastric ulcer at 25 mg/kg, po pretreated for 30 mins followed by stress measured after 6 hrs relative to control. It counts as functional.
Another data set relates to HepG2. The data set is described as follows: Cytotoxicity against human HepG2 cells. The format is functional, cell-based.
The test system of data set [1] is MCF7. The experiment in a line: Cytotoxicity against human MCF7 cells. The format is functional, cell-based.
The next data set relates to Echinochloa frumentacea. The data set is described as follows: Growth inhibition of Barnyard millet seeds at 50 uM after 5 days relative to control. It counts as functional. The note with it: 120 h, read-out: GI.
Data set [2] relates to NCI-H187. The experiment in a line: Cytotoxicity against human NCI-H187 cells assessed as reduction in cell viability by resazurin microplate assay. The format is functional, cell-based. (The colour change of resazurin is a common sign of viable cells or microbes.)
The subject of data set [3] is KB. The data set is described as follows: Cytotoxicity against human KB cells. It counts as functional, cell-based.
Data set [4] deals with NCI-H187. The data set is described as follows: Cytotoxicity against human NCI-H187 cells. It counts as functional, cell-based.
Data set [5] has as its system KB. The data set is described as follows: Cytotoxicity against human KB cells assessed as reduction in cell viability by resazurin microplate assay. The format is functional, cell-based.
The nature of data set [6]: Therapeutic ratio of LC50 to EC50 for Balanus amphitritea. The format is ADME. The note with it: amphibalanus amphitrite; read-out: TI.
For data set [7], the system named is A549. The data set is described as follows: Cytotoxicity against human A549 cells assessed as reduction in cell viability after 3 days by MTT assay. The format is functional, cell-based. To be noted: A549, 72 h. (In general: Tetrazolium assays rely on reduction of a dye to a coloured formazan, in cell work by metabolically active cells.)
Data set [8] has as its system MCF7. The data set is described as follows: Cytotoxicity against human MCF7 cells assessed as reduction in cell viability after 3 days by MTT assay. The format is functional, cell-based. To be noted: MCF7, 72 h.
Data set [9] has as its system Tobacco mosaic virus. The data set is described as follows: Antiviral activity against TMV assessed as inhibition of viral infection at 20 uM by half-leaf method relative to control. The format is functional.
The subject of data set [10] is MCF7. The data set is described as follows: Cytotoxicity against human MCF7 cells assessed as reduction in cell viability after 48 hrs by MTT assay. The format is functional, cell-based. To be noted: MCF7, 48 h.
A further data set relates to SH-SY5Y. The experiment in a line: Cytotoxicity against human SH-SY5Y cells assessed as reduction in cell viability after 48 hrs by MTT assay. It counts as functional, cell-based.
Data set [11] has as its system Tobacco mosaic virus. The data set is described as follows: Antiviral activity against TMV infected in Nicotiana glutinosa leaves assessed as inhibition of lesions at 20 uM pretreated for 30 mins followed by viral infection measured after 3 to 4 days by half-leaf method relative to control. It counts as functional.
Data set [12] in a line: Cytotoxicity against human PC3 cells assessed as reduction in cell viability after 48 hrs by MTT assay. It counts as functional, cell-based. The note with it: PC-3, 48 h.
The subject of data set [13] is A549. The experiment in a line: Cytotoxicity against human A549 cells assessed as reduction in cell viability after 48 hrs by MTT assay. It counts as functional, cell-based. The note with it: A549, 48 h.
A short description of data set [14]: Cytotoxicity against human NB4 cells assessed as reduction in cell viability after 48 hrs by MTT assay. It counts as functional, cell-based. The note with it: NB-4, 48 h.
For the next data set, the target named is Kallikrein-7 (Homo sapiens, UniProt P49862). The experiment in a line: Competitive inhibition of human kallikrein-7.
Sequence of Kallikrein-7 (P49862 whole entry): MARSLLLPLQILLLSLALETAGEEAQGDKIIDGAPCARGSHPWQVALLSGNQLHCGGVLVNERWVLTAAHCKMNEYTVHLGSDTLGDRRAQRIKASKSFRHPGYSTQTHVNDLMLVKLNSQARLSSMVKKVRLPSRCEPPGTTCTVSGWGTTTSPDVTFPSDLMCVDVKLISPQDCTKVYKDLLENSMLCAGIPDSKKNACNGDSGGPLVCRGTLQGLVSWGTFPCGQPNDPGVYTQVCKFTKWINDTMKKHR
Data set [15] is described as follows: Antioxidant activity assessed as radical scavenging activity. The format is physicochemical.
The target in a further data set is T2, Aromatase (Homo sapiens, UniProt P11511).
T2 sequence (P11511 whole entry): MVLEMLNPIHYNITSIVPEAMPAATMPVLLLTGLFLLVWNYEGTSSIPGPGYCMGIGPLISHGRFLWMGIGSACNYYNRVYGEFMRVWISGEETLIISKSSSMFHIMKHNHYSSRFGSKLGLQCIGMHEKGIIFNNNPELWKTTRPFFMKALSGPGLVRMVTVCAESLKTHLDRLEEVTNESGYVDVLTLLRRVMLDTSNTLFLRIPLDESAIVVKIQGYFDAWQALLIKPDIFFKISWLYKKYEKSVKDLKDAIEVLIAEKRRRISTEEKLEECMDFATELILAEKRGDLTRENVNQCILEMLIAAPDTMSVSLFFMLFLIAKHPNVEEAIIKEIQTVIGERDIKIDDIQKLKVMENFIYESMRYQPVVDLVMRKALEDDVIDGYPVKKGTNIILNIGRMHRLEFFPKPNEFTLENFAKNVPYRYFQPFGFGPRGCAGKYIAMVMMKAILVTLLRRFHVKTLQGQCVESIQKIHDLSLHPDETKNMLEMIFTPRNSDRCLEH
The experiment in a line: Inhibition of aromatase (unknown origin).

In the next data set the test system is Staphylococcus aureus. The experiment in a line: Antibacterial activity against Staphylococcus aureus. The format is functional.
For the next data set, the system named is P388. The experiment in a line: Cytotoxicity against mouse P388 cells. The format is functional, cell-based.

As a reminder, the Ki is a dissociation constant, usually derived from enzyme kinetics or from competition with a known ligand. High values mean weaker binding, low ones tighter binding. `COc1cc2c(OC)c3cc(C)oc(=O)c3c(O)c2c(O)c1-c1c(OC)cc2c(OC)c3cc(C)oc(=O)c3c(O)c2c1O` displayed a Ki on Kallikrein-5 of 22.9 µM.
In the case of `CC(C)C[C@H](NC(=O)[C@@H](O)[C@@H](O)[C@@H](N)CC(=O)O)[C@@H]1Cc2cccc(O)c2C(=O)O1`, in the data set on Rattus norvegicus, the Activity amounted to 100%.
The IC50 is the midpoint of a concentration-inhibition curve. As to `Cc1c(O)cc2c(c1O)C(=O)O[C@H](CO)C2`, the IC50 worked out at 6.41 µM in the data set on HepG2 and 6.67 µM with MCF7 [1].
Consider `CC(C)C[C@H](NC(=O)C[C@@H](O)[C@H]1O[C@](C)(O)[C@H](C)NC1CC(N)=O)[C@@H]1Cc2cccc(O)c2C(=O)O1` (some centres undefined), for which the inhibition of growth at 50 µM with Echinochloa frumentacea was 7%.
Take `Cc1c(O)cc2c(c1O)C(=O)O[C@H](C)C2`: the IC50 in the data set with HepG2 worked out at 6.41 µM; with MCF7 [1], 6.67 µM.
`COc1c(O)c(-c2c(O)c(OC)c(O)c3c(=O)oc(C)cc23)c2cc(C)oc(=O)c2c1O`: the IC50 is 8.31 µg/mL (≈ 18.8 µM) in the data set on NCI-H187 [2], 24.4 µg/mL (≈ 55.2 µM) in the data set on KB [3], 8.31 µg/mL (≈ 18.8 µM) with NCI-H187 [4] and 24.4 µg/mL (≈ 55.2 µM) with KB [5].
For the compound `C/C=C/CC[C@H]1OC(=O)c2c(O)c(CC=C(C)C)cc(O)c2[C@H]1OC`, the selectivity ratio in data set [6] is greater than 15.
In the case of `CC(C)C[C@H](NC(=O)[C@@H](O)[C@H]1OC(=O)C[C@@H]1N)[C@@H]1Cc2cccc(O)c2C(=O)O1`, the Activity in the data set on Rattus norvegicus was found to be 83%.
Regarding `CCCCC[C@H]1OC(=O)c2c(O)c(CC=C(C)C)cc(O)c2[C@H]1OC`, in data set [6], the selectivity ratio was greater than 15.
As usually defined, the inhibition is the drop in the measured response relative to a control, in per cent. Turning to `COc1cc(OC)c2c(c1CC=C(C)C)C[C@@H](C)OC2=O`, the IC50 was determined as 3.8 µM in the data set on A549 [7] and 4 µM with MCF7 [8]. In addition, in the data set with Tobacco mosaic virus [9], the inhibition at 20 µM stood at 28.6%.
`C[C@@H]1Cc2cc(O)c(C=O)c(O)c2C(=O)O1`: the IC50 in the data set on HepG2 turned out to be 6.41 µM; in the data set on MCF7 [1], 6.67 µM.
For the compound `COc1c(O)cc2c(c1CC=C(C)C)C[C@@H](C)OC2=O`, the IC50 in the data set with A549 [7] is 3.8 µM; in the data set with MCF7 [8] it was 4 µM. In addition, the inhibition at 20 µM with Tobacco mosaic virus [9] is 28.6%.
For `CC(=O)Cc1cc2c(CCCO)cc(O)cc2c(=O)o1`, the IC50 (with MCF7 [10]; in the data set on SH-SY5Y; in [12]; in the data set with A549 [13]; in [14]) was 2800 nM in each case. Also, in the data set on Tobacco mosaic virus [11], the inhibition at 20 µM stood at 28.4%.
Turning to `CC(C)C[C@H](NC(=O)[C@@H](O)[C@H]1O[C@](C)(O)[C@@]2(C)NC(=O)C[C@@H]1N2)[C@@H]1Cc2cccc(O)c2C(=O)O1`, the inhibition of growth at 50 µM in the data set with Echinochloa frumentacea turned out to be 82%.
Turning to `CC[C@@H]1Cc2cc(O)cc(O)c2C(=O)O1`, the IC50 amounted to 6.41 µM in the data set on HepG2 and 6.67 µM in the data set with MCF7 [1].
`COC1=C(c2c(OC)cc3c(c2O)C(=O)C2=C(C[C@H](C)OC2=O)C3=O)C(=O)c2c(O)c3c(c(O)c2C1=O)C[C@H](C)OC3=O`: the values for the Ki on Kallikrein-5 and on Kallikrein-7 were 22.9 µM and 12.2 µM, respectively.
Turning to `C[C@H](O)C/C=C/CCCCC1Cc2cc(O)cc(O)c2C(=O)O1` (some centres undefined), the figures for the IC50 (in [15]; on Aromatase) were 21.7 µM and 12.3 µM, respectively.
The term MIC denotes the smallest concentration in the dilution series that meets the test's criterion for growth inhibition. A lower MIC goes with inhibition by little substance. `CC[C@H](N)[C@H](O)[C@H](O)CC(=O)N[C@@H](CC(C)C)[C@@H]1Cc2cccc(O)c2C(=O)O1` returned an MIC in the data set with Staphylococcus aureus of 12 µM (≈ 4.9 µg/mL). In the data set with P388, this compound had an IC50 of 15 µM.
Regarding `CC(C)C[C@H](NC(=O)[C@@H](O)[C@@H](O)[C@@H](N)CC(N)=O)[C@@H]1Cc2cccc(O)c2C(=O)O1`, in the data set with Rattus norvegicus, the Activity came to 72%.
Consider `CC1(C)CCc2c(cc(O)c3c2CC(CO)OC3=O)O1` (centres undefined), for which the inhibition at 20 µM in the data set on Tobacco mosaic virus [9] was determined as 33.8%.
With `COc1ccc(CCCO)c2cc(CC(C)=O)oc(=O)c12`, the IC50 (in the data set on MCF7 [10]; in the data set on SH-SY5Y; in data set [12]; in the data set on A549 [13]; in [14]) was 2800 nM throughout. For the same compound, the inhibition at 20 µM with Tobacco mosaic virus [11] was 30.6%.
In the data set with P388, `CCCC1Cc2cc(O)c(Br)c(O)c2C(=O)O1` (centres undefined) came in with an IC50 of 0.19 µg/mL.
As to `COc1cc2c(c3c1OC(C)(C)CC3=O)C[C@@H](C)OC2=O`, the values for the IC50 with A549 [7] and in the data set with MCF7 [8] were 3.8 µM and 4 µM, respectively. In the data set on Tobacco mosaic virus [9], the inhibition at 20 µM turned out to be 28.6%.
